ChEMBL document CHEMBL3045223, “Synthesis, nematicidal and antimicrobial properties of Bis-[4-methoxy-3-[3-(4-fluorophenyl)-6-(4-methylphenyl)-2(aryl)-tetrahydro-2H-pyrazolo[3,4-d]thiazol-5-yl]phenyl]methanes” (2009)
In brackets after ≈: the same amount, converted by molar mass. Activity calls are given as the source filed them. The rule behind the calls is not given here.

Key:
Assay type in all cases: functional
Bacillus subtilis [1] = test: Antibacterial activity against Bacillus subtilis MTCC 441 assessed as inhibition zones at 100 ug/disk at 37 degC for 24 hr; details: MTCC 441, 24 h, read-out: IZ
Klebsiella aerogenes [2] = test: Antibacterial activity against Enterobacter aerogenes MTCC 39 assessed as inhibition zones at 100 ug/disk at 37 degC for 24 hr; details: MTCC 39, 24 h, read-out: IZ
Staphylococcus aureus [3] = test: Antibacterial activity against Staphylococcus aureus MTCC 96 assessed as growth arrest at 37 degC for 24 hr; details: MTCC 96, 24 h
[4] = test system: Chromobacterium violaceum; test: Antibacterial activity against Chromobacterium violaceum MTCC 2656 assessed as inhibition zones at 100 ug/disk at 37 degC for 24 hr; details: MTCC 2656, 24 h, read-out: IZ
Bacillus subtilis [5] = test: Antibacterial activity against Bacillus subtilis MTCC 441 assessed as growth arrest at 37 degC for 24 hr; details: MTCC 441, 24 h
[6] = test system: Lysinibacillus sphaericus; test: Antibacterial activity against Lysinibacillus sphaericus MTCC 11 assessed as growth arrest at 37 degC for 24 hr; details: MTCC 11, 24 h
Klebsiella aerogenes [7] = test: Antibacterial activity against Enterobacter aerogenes MTCC 39 assessed as growth arrest at 37 degC for 24 hr; details: MTCC 39, 24 h
[8] = test system: Chromobacterium violaceum; test: Antibacterial activity against Chromobacterium violaceum MTCC 2656 assessed as growth arrest at 37 degC for 24 hr; details: MTCC 2656, 24 h
[9] = test system: Lysinibacillus sphaericus; test: Antibacterial activity against Lysinibacillus sphaericus MTCC 11 assessed as inhibition zones at 100 ug/disk at 37 degC for 24 hr; details: MTCC 11, 24 h, read-out: IZ
Staphylococcus aureus [10] = test: Antibacterial activity against Staphylococcus aureus MTCC 96 assessed as inhibition zones at 100 ug/disc at 37 degC for 24 hr; details: MTCC 96, 24 h, read-out: IZ
Pseudomonas aeruginosa [11] = test: Antibacterial activity against Pseudomonas aeruginosa MTCC 741 assessed as inhibition zones at 100 ug/disk at 37 degC for 24 hr; details: MTCC 741, 24 h, read-out: IZ
Pseudomonas aeruginosa [12] = test: Antibacterial activity against Pseudomonas aeruginosa MTCC 741 assessed as growth arrest at 37 degC for 24 hr; details: MTCC 741, 24 h
Caenorhabditis elegans = test: Nematicidal activity against Caenorhabditis elegans assessed as immobility; details: read-out: LD50 (the source's name)
[13] = test system: Trichophyton mentagrophytes; test: Antifungal activity against Trichophyton mentagrophytes IFO 40996 assessed as growth inhibition at 300 ug/disc at 37 degC for 48 hr
Klebsiella aerogenes [14] = test: Antibacterial activity against Enterobacter aerogenes MTCC 39 assessed as inhibition zones at 300 ug/disk at 37 degC for 24 hr; details: MTCC 39, 24 h, read-out: IZ
Staphylococcus aureus [15] = test: Antibacterial activity against Staphylococcus aureus MTCC 96 assessed as inhibition zones at 300 ug/disc at 37 degC for 24 hr; details: MTCC 96, 24 h, read-out: IZ
[16] = test system: Lysinibacillus sphaericus; test: Antibacterial activity against Lysinibacillus sphaericus MTCC 11 assessed as inhibition zones at 300 ug/disk at 37 degC for 24 hr; details: MTCC 11, 24 h, read-out: IZ
[17] = test system: Chromobacterium violaceum; test: Antibacterial activity against Chromobacterium violaceum MTCC 2656 assessed as inhibition zones at 300 ug/disk at 37 degC for 24 hr; details: MTCC 2656, 24 h, read-out: IZ
[18] = test system: Trichophyton mentagrophytes; test: Antifungal activity against Trichophyton mentagrophytes IFO 40996 assessed as growth inhibition at 37 degC for 48 hr
Aspergillus fumigatus [19] = test: Antifungal activity against Aspergillus fumigatus HIC 6094 assessed as growth inhibition at 300 ug/disc at 37 degC for 48 hr
Candida albicans [20] = test: Antifungal activity against Candida albicans ATCC 10231 assessed as growth inhibition at 37 degC for 48 hr
[21] = test system: Ditylenchus myceliophagus; test: Nematicidal activity against Ditylenchus myceliophagus assessed as immobility; details: read-out: LD50 (the source's name)
Bacillus subtilis [22] = test: Antibacterial activity against Bacillus subtilis MTCC 441 assessed as inhibition zones at 300 ug/disk at 37 degC for 24 hr; details: MTCC 441, 24 h, read-out: IZ
Candida albicans [23] = test: Antifungal activity against Candida albicans ATCC 10231 assessed as growth inhibition at 300 ug/disk at 37 degC for 48 hr; details: ATCC 10231, 48 h, read-out: IZ
Aspergillus fumigatus [24] = test: Antifungal activity against Aspergillus fumigatus HIC 6094 assessed as growth inhibition at 37 degC for 48 hr; details: HIC 6094, 48 h
Trichophyton rubrum [25] = test: Antifungal activity against Trichophyton rubrum IFO 9185 assessed as growth inhibition at 300 ug/disk at 37 degC for 48 hr
Trichophyton rubrum [26] = test: Antifungal activity against Trichophyton rubrum IFO 9185 assessed as growth inhibition at 37 degC for 48 hr; details: IFO 9185, 48 h
Pseudomonas aeruginosa [27] = test: Antibacterial activity against Pseudomonas aeruginosa MTCC 741 assessed as inhibition zones at 300 ug/disk at 37 degC for 24 hr; details: MTCC 741, 24 h, read-out: IZ

Compound	MBC (Staphylococcus aureus [3])	MIC (Staphylococcus aureus [3])	MBC (Bacillus subtilis [5])	MIC (Bacillus subtilis [5])	MBC [6]	MIC [6]	MBC (Klebsiella aerogenes [7])	MIC (Klebsiella aerogenes [7])	MBC [8]	MIC [8]	MBC (Pseudomonas aeruginosa [12])	MIC (Pseudomonas aeruginosa [12])	LC50 (Caenorhabditis elegans)	zone of inhibition at 300 µg/disc (Klebsiella aerogenes [14])	zone of inhibition at 300 µg/disc (Staphylococcus aureus [15])	zone of inhibition at 300 µg/disc [16]	zone of inhibition at 300 µg/disc [17]	LC50 [21]	zone of inhibition at 300 µg/disc (Bacillus subtilis [22])	zone of inhibition at 300 µg/disc (Candida albicans [23])	also measured
CN[C@@H]1[C@H](O[C@H]2[C@H](O[C@H]3[C@H](O)[C@@H](O)[C@H](N=C(N)N)[C@@H](O)[C@@H]3N=C(N)N)O[C@@H](C)[C@]2(O)C=O)O[C@@H](CO)[C@H](O)[C@H]1O [STREPTOMYCIN]	12.5 µg/mL (≈ 21.5 µM)	6.25 µg/mL (≈ 10.7 µM)	12.5 µg/mL (≈ 21.5 µM)	6.25 µg/mL (≈ 10.7 µM)	25 µg/mL (≈ 43 µM)	6.25 µg/mL (≈ 10.7 µM)	6.25 µg/mL (≈ 10.7 µM)	1.56 µg/mL (≈ 2.68 µM)	6.25 µg/mL (≈ 10.7 µM)	3.12 µg/mL (≈ 5.36 µM)	6.25 µg/mL (≈ 10.7 µM)	1.56 µg/mL (≈ 2.68 µM)	–	–	–	–	–	–	–	–	zone of inhibition at 100 µg/disc (Bacillus subtilis [1]): 30 mm; zone of inhibition at 100 µg/disc (Klebsiella aerogenes [2]): 25 mm; zone of inhibition at 100 µg/disc [4]: 20 mm; zone of inhibition at 100 µg/disc [9]: 20 mm; zone of inhibition at 100 µg/disc (Staphylococcus aureus [10]): 41 mm; zone of inhibition at 100 µg/disc (Pseudomonas aeruginosa [11]): 15 mm
COc1ccc(Cc2ccc(OC)c(C3SC4C(=NN(c5ccccc5)C4c4ccc(F)cc4)N3c3ccc(C)cc3)c2)cc1C1SC2C(=NN(c3ccccc3)C2c2ccc(F)cc2)N1c1ccc(C)cc1 (configuration not stated)	12.5 µg/mL (≈ 12.5 µM)	12.5 µg/mL (≈ 12.5 µM)	25 µg/mL (≈ 24.9 µM)	12.5 µg/mL (≈ 12.5 µM)	50 µg/mL (≈ 49.8 µM)	25 µg/mL (≈ 24.9 µM)	25 µg/mL (≈ 24.9 µM)	12.5 µg/mL (≈ 12.5 µM)	25 µg/mL (≈ 24.9 µM)	25 µg/mL (≈ 24.9 µM)	50 µg/mL (≈ 49.8 µM)	12.5 µg/mL (≈ 12.5 µM)	670 µg/mL (≈ 668 µM)	17 mm	27 mm	16 mm	19 mm	850 µg/mL (≈ 847 µM)	14 mm	11 mm	zone of inhibition at 300 µg/disc ([13]; IFO 40996, 48 h, read-out: IZ): 9 mm; MBC ([18]; IFO 40996, 48 h): 25 µg/mL (≈ 24.9 µM); MIC ([18]; IFO 40996, 48 h): 25 µg/mL (≈ 24.9 µM); zone of inhibition at 300 µg/disc (Aspergillus fumigatus [19]; HIC 6094, 48 h, read-out: IZ): 10 mm; MBC (Candida albicans [20]): inactive; MIC (Candida albicans [20]): inactive; MBC (Aspergillus fumigatus [24]): 25 µg/mL (≈ 24.9 µM); MIC (Aspergillus fumigatus [24]): 25 µg/mL (≈ 24.9 µM); inhibition zone (IZ) (Trichophyton rubrum [25]): inactive; MBC (Trichophyton rubrum [26]): 50 µg/mL (≈ 49.8 µM); MIC (Trichophyton rubrum [26]): 25 µg/mL (≈ 24.9 µM); zone of inhibition at 300 µg/disc (Pseudomonas aeruginosa [27]): 18 mm
COc1ccc(N2N=C3C(SC(c4cc(Cc5ccc(OC)c(C6SC7C(=NN(c8ccc(OC)cc8)C7c7ccc(F)cc7)N6c6ccc([N+](=O)[O-])cc6)c5)ccc4OC)N3c3ccc([N+](=O)[O-])cc3)C2c2ccc(F)cc2)cc1 (configuration not stated)	25 µg/mL (≈ 22.2 µM)	12.5 µg/mL (≈ 11.1 µM)	25 µg/mL (≈ 22.2 µM)	12.5 µg/mL (≈ 11.1 µM)	50 µg/mL (≈ 44.4 µM)	12.5 µg/mL (≈ 11.1 µM)	12.5 µg/mL (≈ 11.1 µM)	6.25 µg/mL (≈ 5.55 µM)	25 µg/mL (≈ 22.2 µM)	12.5 µg/mL (≈ 11.1 µM)	25 µg/mL (≈ 22.2 µM)	12.5 µg/mL (≈ 11.1 µM)	810 µg/mL (≈ 720 µM)	21 mm	21 mm	20 mm	16 mm	920 µg/mL (≈ 818 µM)	14 mm	13 mm	inhibition zone (IZ) [13]: inactive; MBC [18]: inactive; MIC [18]: inactive; inhibition zone (IZ) (Aspergillus fumigatus [19]): inactive; MBC (Candida albicans [20]; ATCC 10231, 48 h): 12.5 µg/mL (≈ 11.1 µM); MIC (Candida albicans [20]; ATCC 10231, 48 h): 6.25 µg/mL (≈ 5.55 µM); MBC (Aspergillus fumigatus [24]): 25 µg/mL (≈ 22.2 µM); MIC (Aspergillus fumigatus [24]): 12.5 µg/mL (≈ 11.1 µM); inhibition zone (IZ) (Trichophyton rubrum [25]): inactive; MBC (Trichophyton rubrum [26]): 25 µg/mL (≈ 22.2 µM); MIC (Trichophyton rubrum [26]): 12.5 µg/mL (≈ 11.1 µM); zone of inhibition at 300 µg/disc (Pseudomonas aeruginosa [27]): 9 mm
